The source of these data is ChEMBL document CHEMBL1155207, “Palbinone and triterpenes from Moutan Cortex (Paeonia suffruticosa, Paeoniaceae) stimulate glucose uptake and glycogen synthesis via activation of AMPK in insulin-resistant human HepG2 Cells” (Bioorg Med Chem Lett, 2009).

Data set [1] addresses T1, AMP-activated protein kinase, AMPK (Homo sapiens) (UniProt P54646+O43741+P54619+Q9UGJ0+Q9Y478+Q13131+Q9UGI9). As to the kind of experiment: Induction of AMPK phosphorylation in human HepG2 cells at 10 uM by Western blot analysis in presence of 33 mM glucose. The class given is cell-based. For orientation: A western blot detects proteins with antibodies after separation by electrophoresis.

Data set [2] can be described thus: Cytotoxicity against human HepG2 cells assessed as cell survival at 100 uM after 24 hrs by MTT assay. The class given is cell-based. The conditions noted are these: read-out: Survival. On the technique in general: Tetrazolium dyes change colour on reduction, which living cells bring about.
Data set [3] deals with HepG2. As to the kind of experiment: Induction of glucose uptake in human HepG2 cells at 10 uM in presence of 33 mM […] by scintillation counting. The class given is functional, cell-based.
In data set [4] the test system is HepG2. Put plainly: Increase in glycogen synthesis in human HepG2 cells assessed as incorporation of [14C]glucose in to cellular glycogen pools at 10 uM after 60 mins in presence of 33 mM glucose. The class given is functional, cell-based.
The target of data set [5] is Glycogen synthase kinase-3 beta (Homo sapiens) (UniProt P49841). Put plainly: Induction of GSK3-beta phosphorylation in human HepG2 cells at 10 uM by Western blot analysis in presence of 33 mM glucose. The class given is cell-based.
Data set [6] can be described thus: Cytotoxicity against human HepG2 cells assessed as cell survival at 5 uM after 24 hrs by MTT assay. Format: cell-based. To be noted: read-out: Survival.
Data set [7] in a line: Cytotoxicity against human HepG2 cells assessed as cell survival at 20 uM after 24 hrs by MTT assay. The class given is cell-based. The conditions noted are these: read-out: Survival.
A short description of data set [8]: Cytotoxicity against human HepG2 cells assessed as cell survival at 10 uM after 24 hrs by MTT assay. Format: cell-based. The conditions noted are these: read-out: Survival.
The target in data set [9] is T1, AMP-activated protein kinase, AMPK (Homo sapiens). As to the kind of experiment: Induction of AMPK phosphorylation in human HepG2 cells by Western blot analysis in presence of 33 mM glucose. The class given is cell-based.
The target in data set [10] is Glycogen synthase kinase-3 beta (Homo sapiens) (UniProt P49841). As to the kind of experiment: Induction of GSK3-beta phosphorylation in human HepG2 cells by Western blot analysis in presence of 33 mM glucose. The class given is cell-based.
Data set [11] concerns HepG2. As to the kind of experiment: Induction of acetyl-coA carboxylase phosphorylation in human HepG2 cells by Western blot analysis in presence of 33 mM glucose. The class given is cell-based.
Data set [12] has as its system HepG2. Put plainly: Induction of glucose uptake in human HepG2 cells in presence of 33 mM […] by scintillation counting. Format: functional, cell-based.
In data set [13] the test system is HepG2. Put plainly: Increase in glycogen synthesis in human HepG2 cells assessed as incorporation of [14C]glucose in to cellular glycogen pools at 1 uM after 60 mins in presence of 33 mM glucose. The class given is functional, cell-based.

Calls of active or inactive are those of the source. The rule behind the calls is not given here.

Sequence of Glycogen synthase kinase-3 beta (Homo sapiens) (P49841 whole entry, looked up): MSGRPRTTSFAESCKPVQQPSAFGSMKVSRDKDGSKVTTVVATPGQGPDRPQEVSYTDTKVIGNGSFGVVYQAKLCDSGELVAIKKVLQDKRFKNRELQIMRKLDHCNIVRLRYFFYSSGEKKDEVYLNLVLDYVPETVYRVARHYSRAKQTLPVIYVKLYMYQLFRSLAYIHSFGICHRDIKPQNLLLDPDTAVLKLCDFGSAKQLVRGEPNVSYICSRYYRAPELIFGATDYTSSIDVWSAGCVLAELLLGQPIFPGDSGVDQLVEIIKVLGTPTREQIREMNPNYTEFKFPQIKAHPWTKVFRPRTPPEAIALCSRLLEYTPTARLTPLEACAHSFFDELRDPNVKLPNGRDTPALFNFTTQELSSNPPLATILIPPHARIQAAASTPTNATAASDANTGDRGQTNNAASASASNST

Regarding `C=C1CC[C@]2(C(=O)O)CC[C@]3(C)C(=CC[C@@H]4[C@@]5(C)CC[C@H](O)[C@@](C)(CO)[C@@H]5CC[C@]43C)[C@@H]2C1`, the result (in [1]; in the data set with HepG2 [3]; with HepG2 [4]; in [5]) was Active. The viability at 24 h, 100 µM in data set [2] was found to be 65%. Also, the viability at 24 h, 5 µM in [6] came out at 100%. The viability at 24 h, 20 µM in data set [7] is 84.6%. Also, in [8], the viability at 24 h, 10 µM was found to be 96.7%.

Regarding `CC[C@H](CC[C@@H](C)[C@H]1CC[C@H]2[C@@H]3CC=C4C[C@@H](O)CC[C@]4(C)[C@H]3CC[C@]12C)C(C)C` [BETA-SITOSTEROL], the outcome (in data set [1]; with HepG2 [3]; in the data set with HepG2 [4]; in data set [5]) was Active. Further, in data set [2], the viability at 24 h, 100 µM came to 57.8%. Further, the viability at 24 h, 5 µM in data set [6] came to 98.8%. In addition, the viability at 24 h, 20 µM in data set [7] is 82.3%. In [8], the viability at 24 h, 10 µM was 99.7%.

Turning to `C=C(C)[C@@H]1CC[C@]2(C(=O)O)CC[C@]3(C)[C@H](CC[C@@H]4[C@@]5(C)CC[C@H](O)C(C)(C)[C@@H]5CC[C@]43C)[C@@H]12` [BETULINIC ACID], the result (in data set [1]; with HepG2 [3]; with HepG2 [4]; in data set [5]) was Active. Moreover, in [2], the viability at 24 h, 100 µM turned out to be 52.9%. For the same compound, in data set [6], the viability at 24 h, 5 µM is 99.6%. Moreover, the viability at 24 h, 20 µM in [7] amounted to 81.2%. Besides, the viability at 24 h, 10 µM in data set [8] was 91.3%.

Turning to `CC1(C)CC[C@]2(C(=O)O)CC[C@]3(C)C(=CC[C@@H]4[C@@]5(C)CC[C@H](O)C(C)(C)[C@@H]5CC[C@]43C)[C@@H]2C1` [OLEANOLIC_ACID], the outcome (in data set [1]; in the data set on HepG2 [3]; in the data set with HepG2 [4]; in data set [5]) was Active. Also, the viability at 24 h, 100 µM in data set [2] worked out at 54.1%. For the same compound, in [6], the viability at 24 h, 5 µM amounted to 97.8%. The viability at 24 h, 20 µM in [7] is 82.4%. The viability at 24 h, 10 µM in data set [8] was 99.9%.

In the case of `CC1(C)[C@@H](O)CC[C@]2(C)[C@H]3C=CC4=C(O)C(=O)C(=O)[C@@]4(C)[C@]3(C)CC[C@@H]12` [PALBINONE], the result (in data set [1]; in the data set with HepG2 [3]; with HepG2 [4]; with HepG2 [13]; in data set [5]) was Active. For the same compound, the Activity entry (in data set [9]; in data set [10]; with HepG2 [11]; in the data set on HepG2 [12]) was “Dose-dependent effect” throughout. Further, in [2], the viability at 24 h, 100 µM amounted to 41.6%. Moreover, the viability at 24 h, 5 µM in data set [6] was determined as 98.7%. In addition, in [7], the viability at 24 h, 20 µM turned out to be 81.5%. Moreover, in data set [8], the viability at 24 h, 10 µM was determined as 99.8%.

For `CC[C@H](CC[C@@H](C)[C@H]1CC[C@H]2[C@@H]3CC=C4C[C@@H](O[C@@H]5O[C@H](CO)[C@@H](O)[C@H](O)[C@H]5O)CC[C@]4(C)[C@H]3CC[C@]12C)C(C)C` [SITOGLUSIDE], the outcome (in [1]; in the data set on HepG2 [3]; in the data set with HepG2 [4]; in [5]) was Active. Further, the viability at 24 h, 100 µM in data set [2] amounted to 66.3%. In data set [6], the viability at 24 h, 5 µM was 99.9%. Further, the viability at 24 h, 20 µM in data set [7] was 82.7%. Besides, in data set [8], the viability at 24 h, 10 µM was 92.8%.

On to `C[C@H]1[C@H](C)CC[C@]2(C(=O)O)CC[C@]3(C)C(=CC[C@@H]4[C@@]5(C)CC[C@H](O)C(C)(C)[C@@H]5CC[C@]43C)[C@H]12` [URSOLIC ACID], for which the result (in data set [1]; with HepG2 [3]; with HepG2 [4]; in data set [5]) was Active. In addition, in [2], the viability at 24 h, 100 µM came out at 55.8%. Also, the viability at 24 h, 5 µM in data set [6] was determined as 97.1%. The viability at 24 h, 20 µM in [7] is 82%. For the same compound, the viability at 24 h, 10 µM in [8] was 99.2%.
